In PubChem BioAssay AID1996:
Values after ≈ are worked out from the molar mass of the structure shown.

Details: buffer; pH 7.4; 200.0 µM

SMILES | solubility kinetic [µg/mL]
CCC1Oc2ccc(C)cc2N(CC(=O)N2CCCC2)C1=O (centres undefined) | > 45.4
COc1ccc(C2(C)NC(=O)N(CC(=O)NCC(=O)Nc3ccc(F)c(F)c3F)C2=O)cc1OC (centres undefined) | 0.5 (≈ 1.01 µM)
COc1ccccc1CNC(=O)C1(C)Oc2cccnc2NC1=O (centres undefined) | > 49.1
Cc1cc(=O)[nH]c(SCC(=O)Nc2ccc(N3CCCCC3)cc2)n1 | 28.5 (≈ 79.5 µM)
CC(C)(C)C(=O)Cn1ncc(N2CCOCC2)c(Cl)c1=O | > 47.1
O=C(COC(=O)c1cc(S(=O)(=O)N2CCCC2)ccc1O)Nc1ccccc1Br | 9.6 (≈ 19.9 µM)
NC1=NC2(CCCC2)N=C(Nc2ccccc2)N1 | > 36.5
COc1ccc(-c2nc3ccccc3c(=O)n2O)cc1 | 37.9 (≈ 141 µM)
O=C(O)c1cccc2c1C(=O)N(CC1CCCO1)C2 (centres undefined) | > 39.2
O=C(O)c1ccc(Nc2ccc3nonc3c2[N+](=O)[O-])cc1 | 44.9 (≈ 150 µM)
C=CCSc1nc2sc3c(c2c(=O)n1CC)CCc1ccccc1-3 | > 53.2
Cc1cc(C)c(NC(=S)N(C)C)c(C)c1 | > 33.4
Cc1noc(C)c1C(=O)N(C)Cc1ccccc1 | 34 (≈ 139 µM)
COc1ccc(CNC(=O)c2sccc2-c2ccccc2)cc1OC | 33.7 (≈ 95.3 µM)
COCCNC(=S)N(CCc1c(C)[nH]c2ccc(C)cc12)Cc1ccco1 | 15.2 (≈ 39.4 µM)
Cl.O=C(OCCN1CCOCC1)c1ccccc1 | 39.6
O=C(CNC(=O)c1ccc(Cl)cc1)N/N=C/c1cccnc1 | > 47.5
COc1ccc(CCNC(=O)COC(=O)c2ccc(C)s2)cc1 | 27.6 (≈ 82.8 µM)
N#C/C(N)=C(/C#N)N=Cc1cccc(Cl)c1 | 4 (≈ 17.3 µM)
CCC(=O)OCCNc1nc(-c2ccccc2)nc2ccccc12.Cl | 5.3
Cc1cc(Nc2ccc(Br)cc2)nc2ccccc12 | < 0.3
CCOc1ccc2[nH]c3c(c2c1)CNCC3 | 25.9 (≈ 120 µM)
COc1ccccc1N1CCN(CC(=O)NCc2ccc(Cl)cc2)CC1 | > 56.1
O=C(CN1C(=O)C(=O)N(CCC2=CCCCC2)C1=O)Nc1ccc(F)cc1F | 6.5 (≈ 16.6 µM)

SMILES | solubility kinetic [µg/mL]
COc1cc(Nc2ncnc(N)n2)cc(OC)c1OC | > 41.6
CC(C)CCNC1c2ccccc2C(=O)N1Cc1ccccc1.Cl (centres undefined) | 6.2
N#Cc1ccc(S(=O)(=O)N2CCN(c3ncccn3)CC2)cc1 | 1.9 (≈ 5.77 µM)
O=C1CCCc2ccccc2N1Cc1ccccc1 | 37.5 (≈ 149 µM)
COC(=O)[C@@H](NC(=O)/C=C/c1ccc(OC)cc1)C(C)C | > 43.7
O=C(NCCN1CCOCC1)Nc1cccc(Cl)c1 | 40.1 (≈ 141 µM)
CC(=O)N(C)c1ccc(NC(=O)N2CCOCC2)cc1 | 41.5 (≈ 150 µM)
O=C(c1ccc(CNS(=O)(=O)c2cccc(Cl)c2)cc1)N1CCCCC1 | 2.6 (≈ 6.62 µM)
Cc1cccc(CNS(=O)(=O)c2csc(C(N)=O)c2)c1 | > 46.6
Cc1ccc(C)c(-c2csc(-c3cccnc3)n2)c1 | 9.9 (≈ 37.2 µM)
COc1cc(/C(C)=N/N2CCOCC2)cc(OC)c1OC | > 44.2
Cc1nc(N2CCN(c3ccccc3F)CC2)[nH]c(=O)c1C | 14.6 (≈ 48.3 µM)
Cc1ccc(C(=O)NC(C)CCc2ccccc2)cc1S(=O)(=O)N1CCOCC1 (centres undefined) | 5.6 (≈ 13.4 µM)
CC(C)(C)N(Cc1ccccc1)C(=O)COC(=O)C1CCCCC1 | 24.4 (≈ 73.6 µM)
N=c1oc2cc(O)ccc2cc1C(=O)Nc1ccc(F)cc1 | 1.5 (≈ 5.03 µM)
CC(C)(CNC(=O)CCC1CCCC1)CNC(=O)CCC1CCCC1 | 27.1 (≈ 77.3 µM)
COC(=O)[C@@H](N)CCCN=C(N)N[N+](=O)[O-].Cl | > 40.5
O=C(NCc1ccccc1F)C(c1ccccc1)c1ccccc1 | 0.9 (≈ 2.82 µM)
Cc1ccc(SCc2nc3ncccn3c2Br)cc1 | > 50.1
COCn1cnc(-c2ccccc2)c1-c1ccccc1 | 32.5 (≈ 123 µM)
Cc1ncc([N+](=O)[O-])n1CCN1C(=O)c2ccccc2C1=O | 44.3 (≈ 148 µM)
CCOC(=O)c1ccc(Oc2cc(C)nc(Cl)n2)cc1 | > 43.9
COc1ccccc1C1=NC(c2ccccc2)CN1c1ccccc1 (centres undefined) | 0.6 (≈ 1.83 µM)
O=C1C(Cl)=C(N2CCOCC2)C(=O)N1c1ccccc1F | 38.7 (≈ 125 µM)

SMILES | solubility kinetic [µg/mL]
COc1ccc(N2CCc3c(C)nc4c(OC)cc(OC)cc4c32)cc1 | > 52.6
O=C(Oc1c(-c2ccccc2)c(=O)n2c3c(cccc13)CC2)c1ccccc1 | 4.8 (≈ 13.1 µM)
Cn1cnc(S(=O)(=O)Nc2ccc3c(c2)OCCO3)c1 | 30.2 (≈ 102 µM)
O=C1NCC(COc2ccc([N+](=O)[O-])cc2)O1 (centres undefined) | 34.1 (≈ 143 µM)
Oc1ccc(Nc2nc(-c3cccnc3)cs2)cc1 | 0.8 (≈ 2.97 µM)
COc1cccc(/C=C(\C)C(=O)c2c(C)cc(C)[nH]c2=O)c1OC | > 49.1
Cc1ccc(NC(=O)CC2(CC(=O)O)CCCC2)c(C)c1 | 40.8 (≈ 141 µM)
COc1cc(CNc2ccc(N3CCCC3)cc2)cc(Cl)c1OC | 9.7 (≈ 28 µM)
CCc1cc(=O)[nH]c(SCC(=O)NCC2CCCO2)n1 (centres undefined) | > 44.6
OC(CN1CCN(c2cccc(Cl)c2)CC1)c1ccccc1 (centres undefined) | 16.1 (≈ 50.8 µM)
COc1ccccc1NC(=O)c1csc2c1CCC(C)C2 (centres undefined) | 1.2 (≈ 3.98 µM)
S=C(Nc1ccc2c(c1)OCCO2)Nc1ccc2c(c1)OCO2 | > 49.6
O=C(O)CC1(CC(=O)Nc2cccc(C(F)(F)F)c2)CCCC1 | > 49.4
Cc1nc2ccccc2c(=O)n1-c1ccc(-c2ccccc2)cc1 | < 0.3
O=C(Nc1ccc2c(c1)OCO2)c1cnccn1 | 19.5 (≈ 80.2 µM)
CC1CCN(C(=O)CSc2nc(C3CC3)nc3ccccc23)CC1 | > 51.2
COc1ccc(C)cc1S(=O)(=O)N1CC(C)OC(C)C1 (centres undefined) | > 44.9
C=CCNC(=O)N[C@@H](Cc1ccccc1)C(=O)OC | > 39.3
O=C(NC(=S)N1CCc2ccccc21)c1ccccc1Cl | 46.6 (≈ 147 µM)
O=C(CN1CCCC1)NC(=O)NC1CCCC1 | > 35.9
O=C(Nc1ccccc1C(=O)NCCCN1CCOCC1)c1ccccc1 | > 55.1
NC(=O)COC(=O)c1cc(-c2ccco2)nc2ccccc12 | 39.9 (≈ 135 µM)
COc1ccc2nc(NCc3cccnc3)sc2c1 | > 40.7
Cc1ccccc1N1C(=O)c2cccc([N+](=O)[O-])c2C1=O | > 42.3

SMILES | solubility kinetic [µg/mL]
Cc1ccc(-c2noc(CCCC(=O)NC3CCCC3)n2)cc1 | 44 (≈ 140 µM)
CCOC(=O)C1=C(C)NC(=O)NC1c1ccc([N+](=O)[O-])o1 (centres undefined) | 42.7 (≈ 145 µM)
CSc1ccccc1C(=O)NCCOc1ccccc1C | > 45.2
CS(=O)(=O)Cc1ccc(C(=O)NC2CCCc3ccccc32)cc1 (centres undefined) | 9.6 (≈ 28 µM)
CN(C)Cc1c(O)ccc2occ(C(=O)c3ccc(F)cc3)c12 | > 47
COc1ccccc1N1C(=O)S/C(=C\c2cccs2)C1=O | < 0.7
C/C(=N\NC(=O)c1cccc([N+](=O)[O-])c1)c1cccnc1 | > 42.6
O=C(CSc1nnc2ccccn12)c1ccc(Cl)cc1 | > 45.6
COc1ccc(C(=O)Nc2ccc(CN3CCOCC3)cc2)cc1Br | 14.1 (≈ 34.8 µM)
O=C(Nc1ccncc1)C1CC(=O)N(Cc2ccccc2)C1 (centres undefined) | > 44.3
COc1cc(NC(=O)COC(=O)CCc2nc3ccccc3c(=O)[nH]2)cc(OC)c1 | 60.7 (≈ 148 µM)
COc1ccc(-c2cc3cc(OC)c(OC)cc3c(C)n2)cc1C | < 0.7
COc1ccc(CCN(C)C/C=C/c2ccccc2)cc1OC | 30.1 (≈ 96.7 µM)
CCc1ccc2c(CN3CCN(S(=O)(=O)c4ccccc4F)CC3)cc(=O)oc2c1 | 3.4 (≈ 7.9 µM)
COc1ccccc1N1CCN(c2nc(C)cc(C)c2C#N)CC1 | 10.4 (≈ 32.3 µM)
NS(=O)(=O)c1ccc(CNC(=S)NC(=O)c2ccco2)cc1 | > 50.9
CCn1c(C)c(C)c2cc(C(=O)NC3CCCCCC3)ccc21 | 0.5 (≈ 1.6 µM)
CCOc1ccc(N2C(=O)CC(NCC3CCCO3)C2=O)cc1 (centres undefined) | > 47.8
CC(=O)Nc1sc(-c2ccc(Cl)cc2)nc1-c1ccccc1 | < 0.4
C/C(=N\NC(=O)CCCNc1cccc(C)c1)c1ccncc1 | > 46.6
COc1ccc(NCC(=O)Nc2cccc(S(=O)(=O)N3CCCC3)c2)cc1Cl | 13.6 (≈ 32.1 µM)
CC(C)(C)N(Cc1ccccc1)C(=O)COC(=O)c1ccc2ccccc2n1 | 3 (≈ 7.97 µM)
CCOc1ccc(CN(C)C(=O)c2cc3ccccc3o2)cc1OC | > 50.9
O=C(CSc1ccc2c(c1)OCCO2)Nc1cccnc1 | > 45.4

SMILES | solubility kinetic [µg/mL]
COc1cc(CC(=O)OCC(=O)NCc2cccs2)cc(OC)c1OC | > 56.9
O=C(CCc1nc2ccccc2s1)Nc1cccnc1 | 32.6 (≈ 115 µM)
Cc1ccsc1C1C(C#N)=C(N)OC2=C1C(=O)CCC2 (centres undefined) | 41.9 (≈ 146 µM)
O=C(CN1C(=O)NC(c2ccccc2)(c2ccccc2)C1=O)NCc1ccco1 | 13.7 (≈ 35.2 µM)
OCc1nc2ccccc2n1Cc1ccc(Cl)cc1 | 28.4 (≈ 104 µM)
Cn1c(=O)oc2cc(S(=O)(=O)NCc3cccnc3)ccc21 | 30.5 (≈ 95.5 µM)
Cc1ccc(SCC(=O)N=C2NC(=O)CS2)cc1 | 35.9 (≈ 128 µM)
O=c1ccccn1CCOc1ccc(Cl)cc1 | > 37.5
COc1cccc(NC(=O)COC(=O)C2CC2)c1 | > 37.4
CCCn1c(=O)c2ccccc2n2c(=S)[nH]nc12 | > 39
CCOC(=O)C1=C(C)NC(=O)NC1/C=C/c1ccccc1OC (centres undefined) | 2.6 (≈ 8.22 µM)
C[C@H](NC(=O)c1ccco1)C(=O)NCc1cccs1 | > 41.7
CN1CCSc2ccc(C(=O)Nc3ccc(Cl)cc3)cc21 | 0.5 (≈ 1.57 µM)
COC(=O)c1ccccc1NC(=O)c1ccc[nH+]c1.[Cl-] | > 43.9
O=C(COC(=O)c1cccc(F)c1)Nc1ccc(Cl)cn1 | 6.2 (≈ 20.1 µM)
COc1cccc(N/C=C/C(=O)c2ccc(OC)c(OC)c2)c1 | 2.3 (≈ 7.34 µM)
O=C1C(Cl)=C(N2CCCC2)C(=O)N1c1ccccc1F | > 44.2
Cc1cccc(OCCCn2c(=O)oc3ccccc32)c1 | 4.6 (≈ 16.2 µM)
O=C(Cn1c(C(=O)O)cc2ccccc21)c1ccccc1 | 39.2 (≈ 140 µM)
CNC(=S)Nc1cccc(-c2cnc3ccccc3n2)c1 | 43.7 (≈ 148 µM)
COc1cc(NC(=O)CN2C(=O)CN(C)C2=O)c(C)cc1[N+](=O)[O-] | > 50.4
COc1ccc(NS(=O)(=O)c2cc(NC(=O)[C@H](C)NC(N)=O)ccc2N2CCCC2)cc1 | > 69.2
CC(C)(C)NCC(O)CON=C1c2ccccc2-c2ccccc21 (centres undefined) | 44.1 (≈ 136 µM)
